Patent publication US20200115698A1, “PHARMACEUTICAL COMBINATION FOR TREATMENT OF FABRY DISEASE AND USE THEREOF” (MEIJI PHARMACEUTICAL UNIVERSITY, priority 2017, published 2020)

How the values were obtained:
[1] = target: T1, α-NAGA mutant (Homo sapiens, UniProt P17050, A191L/S188E); assay: Screening of inhibitor (2): inhibition of enzyme activity of α-NAGA mutant; type: biochemical; conditions: 0.1, 1, or 10 μM compound, pH 4.6, 37° C., 30 minutes; FIG. 1
T1 sequence (P17050 with tags, fused parts or gaps S188E/A191L): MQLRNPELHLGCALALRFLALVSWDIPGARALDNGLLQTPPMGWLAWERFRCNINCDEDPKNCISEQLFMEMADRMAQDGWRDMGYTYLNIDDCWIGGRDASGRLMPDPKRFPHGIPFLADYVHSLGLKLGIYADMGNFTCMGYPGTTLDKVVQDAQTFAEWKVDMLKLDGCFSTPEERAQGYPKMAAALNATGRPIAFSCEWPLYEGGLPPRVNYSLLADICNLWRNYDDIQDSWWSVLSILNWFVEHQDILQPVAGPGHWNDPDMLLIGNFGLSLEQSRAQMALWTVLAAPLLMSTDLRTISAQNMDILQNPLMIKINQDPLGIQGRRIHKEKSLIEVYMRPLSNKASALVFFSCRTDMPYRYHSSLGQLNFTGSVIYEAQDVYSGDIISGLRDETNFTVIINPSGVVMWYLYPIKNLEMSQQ
Method: The second screening was carried out as follows: DGJ, GBS, N-C-DGJ, N-DGJ, or N-HE-DGJ dissolved in purified water or DMSO was added to 25 ng of an α-NAGA mutant and 4 mM 4-methylumbelliferylα-D-galactopyranoside dissolved in 0.1 M phosphate-citrate buffer (pH 4.6) such that a concentration of DGJ, GBS, N-C-DGJ, N-DGJ, or N-HE-DGJ became 0.1, 1, or 10 μM, and the mixture thus obtained was caused to react at 37° C. for 30 minutes (the total amount was 50 μl). After the reaction was finished, 950 μl of 0.2 M glycine buffer (pH 10.7) was added to stop the reaction. Then, released 4-methylumbelliferone was measured at an excitation wavelength of 355 nm and at a fluorescence wavelength of 460 nm with use of Wallac 1420 ARVO MX Multilabel Counter. Remaining enzyme activity was calculated based on the assumption that an enzyme activity value obtained in a case where purified water or DMSO is added instead of the inhibitor candidate compound is 100%. FIG. 1 is a view illustrating inhibition of enzyme activity of an α-NAGA mutant by DGJ.

[2] = system: cultivated fibroblast derived from a patient of Fabry disease; assay: Simultaneous addition of α-NAGA mutant and DGJ to cultivated fibroblast derived from patient of Fabry disease; type: cell-based, human
Method: A cultivated fibroblast derived from a patient of Fabry disease was cultured at 37° C. under a 5% carbon dioxide environment with use of an F-10 medium to which a 10% fetal calf serum and an antibiotic substance had been added. First, concentration dependence of DGJ with respect to uptake efficiency of an α-NAGA mutant was analyzed. The cells were seeded to a 12-well plate at 1.0×10^5 cells/well. Then, the medium was exchanged with a medium containing 1 μg/mL of an α-NAGA mutant and any of concentrations (0, 1, 10, and 100 μM) of DGJ, and cultivation was carried out for 24 hours. The cells were cleaned three times with PBS, then treated with use of trypsin, and then collected. 20 mM MES (pH 6.0) containing Complete Mini (Roche) was added to the collected cells, and the cells were then subjected to an ultrasonic treatment. The homogenate thus obtained was subjected to centrifugal separation under conditions of 4° C. and 12,000 rpm, and the obtained supernatant liquid was used as samples for enzyme activity measurement, protein quantification, and Western blotting.
Next, in order to confirm time dependence, 1 μg/mL of an α-NAGA mutant and 10 μM of DGJ were added to the cells, and cultivation was carried out for 24 hours, 48 hours, and 72 hours. Then, enzyme activity measurement, protein quantification, and Western blotting were carried out. […]

OCC1NCC(O)C(O)C1O [DGJ, (2R,3S,4R,5S)-2-(hydroxymethyl)piperdine-3,4,5-triol]
inhibition of enzyme activity of an α-NAGA mutant (remaining enzyme activity) [1]: had the effect of inhibiting activity of an α-NAGA mutant
α-NAGA mutant enzyme activity in cells ([2]; 1 μg/mL α-NAGA mutant plus 0-100 μM DGJ 24 hours, or 10 μM DGJ 24-72 hours, FIG. 6(a), 7(a)): enzyme activity was improved
amount of protein of the α-NAGA mutant taken in a cell (Western blotting) ([2]; simultaneous addition of DGJ versus no DGJ, FIG. 6(b), 7(b)): confirmed to be increased
